Results reported in patent US11702632B2, “Ex vivo method of generating super regulatory T cells for the prevention of autoimmune disease” (University of Massachusetts, priority 2017, dated 2023).

Tested on: humanized mouse model of GvHD
Assay: Ex vivo-treated hPBMCs transferred into NSG mice, assessment of GvHD
Type: in vivo
Experimental: Animal protocols were approved by the Institutional Animal Care and use Committee of the University of Massachusetts Amherst. […] 10×10^6 treated hPBMCs in 150 μl of PBS were injected into mice via the tail vein.
Clinical score was generated by adding grades for five criteria.
IL-2 and IFNγ cytokine levels in plasma collected from NSG mice were determined by using human IFNγ and IL-2 Flex Sets (BD Biosciences). Data were acquired using a Fortessa 5 Laser Flow Cytometer (BD Biosciences) and analyzed using FCAP array software (Soft Flow Inc.).

## CC(=O)c1c(O)c(C)c(O)c(Cc2c(O)c3c(c(C(=O)/C=C/c4ccccc4)c2O)OC(C)(C)C=C3)c1O [rottlerin, Rottlerin]
hPBMCs pre-treated, no human cells detected on day +70
  mice without overt signs of disease: Two of three
pre-treated hPBMCs
  toxicity to hPBMCs: cytotoxic effects on hPBMCs
